# Test results: patent publication US10376558B2, “Method and compositions for synchronizing time of insemination in gilts” (UNITED-AH II, LLC, priority 2012, dated 2019)
# Experiments:
# gilts = experiment: Example 5: ovulation monitoring by transrectal ultrasonography after 100, 200 or 400 mcg triptorelin gel at 120 h post-MATRIX; format: in vivo, swine; settings: for Percentage ovulated by 48 hours: after treatment; for Time at which ovulation detected: relative to time of triptorelin gel treatment, Least Squares Mean ± SE; for % of Sows Ovulating / Interval from MATRIX Withdrawal to Ovulation: raw average, PTK 2-07
# Description: (§1) All gilts were individually fed MATRIX® as a top-dress for 14 or 15 days at the recommended rate of 15 mg/gilt/day. Gilts were withdrawn from MATRIX® feeding (last top-dress in the morning on Day 0) and allocated to each of the following treatments. Controls were vehicle gel treated (vehicle gel without triptorelin) at 120 (+/−2) hours following MATRIX® withdrawal (last top dress). The other gilts were given 100, 200 or 400 mcg triptorelin as the acetate in a methylcellulose gel formulation 120 (+/−2) hours following MATRIX® withdrawal. The four treatments were:
# 2. TG 100: 100 mcg (2 mL 50 mcg/mL) triptorelin gel at 120 (+/−2) hours after MATRIX® withdrawal.
# 3. TG 200: 200 mcg (2 mL 100 mcg/mL) triptorelin gel at 120 (+/−2) hours after MATRIX® withdrawal.
# 4. TG 400: 400 mcg (2 mL 200 mcg/mL) triptorelin gel at 120 (+/−2) hours after MATRIX® withdrawal.
# Ovulation was monitored twice on Day 5 (8 hours and 16 hours post-treatment) and every 8 hours on Day 6 and Day 7 or until ovulation was confirmed or 176 hours following last MATRIX® feeding. The ovulatory status of all gilts was monitored by transrectal ultrasonography. An Aloka 500 ultrasound machine is used for this purpose, with a 7.5 MHz linear array transducer attached to a fixed-angle PVC stabilizing rod to facilitate insertion into the rectum. The transducer and PVC rod are coated with a gynecological lubricant and gently inserted into the rectum until the ovaries can be visualized, one at a time. The diameters of the three largest follicles were recorded (to the nearest 0.1 mm) at each scanning. A gilt was declared to have ovulated when the number of large follicles (≥6.5 mm) fell to less than 3.
# (§2) A single 2 mL dose of triptorelin gel or vehicle gel was deposited within approximately 1-2 cm posterior to the cervix with a catheter similar to those used for artificial insemination. The dose was delivered using a standard multi-dose applicator attached to the catheter. A new disposable sheath, which surrounds the catheter, was used for each gilt.
# LH = experiment: Example 5: serum LH surge after triptorelin gel (jugular blood sampling); format: in vivo, swine; settings: for Magnitude of LH surge: maximum serum LH concentration; for Onset of LH surge / Time of maximum LH conc.: relative to time of triptorelin gel treatment; for Time of maximum LH conc.: in h (unit assumed); for Gilts, which displayed a LH surge: number of gilts
# Description: as §1
# A catheter was inserted non-surgically into the jugular vein (Kraeling et al. 1982) of a subpopulation of gilts in each treatment group (vehicle gel, n=8; 100 mcg triptorelin, n=6; 200 mcg triptorelin, n=7 and 400 mcg triptorelin, n=6). Ten mL blood samples were collected every 15 minutes for one hour prior to treatment, immediately following treatment (0) and at 0.5, 1, 2, 4, 6, 12, 18, 24, 36 and 48 hours after treatment. Blood samples were maintained at 4° C. until centrifuged at 800×g for 15 minutes within 12 hours of collection. The resulting serum was stored frozen until assayed for LH using validated procedures for pig serum (Kesner et al., 1987 and Kraeling et al., 1982). Onset, duration, and magnitude of the LH surge were analyzed. The LH data were analyzed with the General Linear Models procedure of SAS. Differences between treatments were tested on least squares means estimates using the T test at P<0.05. Onset of the LH surge is when serum LH concentration is greater than or equal to two standard deviations of the mean of the pre-treatment serum LH concentrations. Duration of the LH surge is the period between onset and when serum LH concentration is again less than or equal to two standard deviations of the mean of the pre-treatment serum LH concentrations. Magnitude of the LH surge is the maximum serum LH concentration reached during the LH surge.
# as §2
# [1] = 100 mcg T (n = 6 catheterized gilts)
# [2] = 200 mcg T (n = 7 catheterized gilts)
# [3] = 100 mcg T (n = 6), Least Squares Mean ± SE
# [4] = 200 mcg T (n = 7), Least Squares Mean
# [5] = 400 mcg T (n = 6), Least Squares Mean ± SE
smiles,measurement,setting,value
"CC(C)C[C@H](NC(=O)[C@@H](Cc1c[nH]c2ccccc12)NC(=O)[C@H](Cc1ccc(O)cc1)NC(=O)[C@H](CO)NC(=O)[C@H](Cc1c[nH]c2ccccc12)NC(=O)[C@H](Cc1c[nH]cn1)NC(=O)[C@@H]1CCC(=O)N1)C(=O)N[C@@H](CCCNC(=N)N)C(=O)N1CCC[C@H]1C(=O)NCC(N)=O [T, pGlu-His-Trp-Ser-Tyr-D-Trp-Leu-Arg-Pro-Gly-NH2]",Percentage ovulated by 48 hours,gilts; [1],100%
same,Time at which ovulation detected,gilts; [1],40 ± 10 h
same,Percentage ovulated by 48 hours,gilts; [2],100%
same,Time at which ovulation detected,gilts; [2],34 ± 9 h
same,% of Sows Ovulating,"gilts; 100 mcg T at 120 h, 128 h post-MATRIX, 8 h post-T",0.0%
same,% of Sows Ovulating,"gilts; 100 mcg T at 120 h, 136 h post-MATRIX, 16 h post-T",5.0%
same,% of Sows Ovulating,"gilts; 100 mcg T at 120 h, 144 h post-MATRIX, 24 h post-T",20.0%
same,% of Sows Ovulating,"gilts; 100 mcg T at 120 h, 152 h post-MATRIX, 32 h post-T",30.0%
same,% of Sows Ovulating,"gilts; 100 mcg T at 120 h, 160 h post-MATRIX, 40 h post-T",60.0%
same,% of Sows Ovulating,"gilts; 100 mcg T at 120 h, 168 h post-MATRIX, 48 h post-T",95.0%
same,% of Sows Ovulating,"gilts; 100 mcg T at 120 h, 176 h post-MATRIX, 56 h post-T",100.0%
same,Interval from MATRIX Withdrawal to Ovulation,gilts; 100 mcg T at 120 h after MATRIX withdrawal,159.2
same,% of Sows Ovulating,"gilts; 200 mcg T at 120 h, 128 h post-MATRIX, 8 h post-T",0.0%
same,% of Sows Ovulating,"gilts; 200 mcg T at 120 h, 136 h post-MATRIX, 16 h post-T",0.0%
same,% of Sows Ovulating,"gilts; 200 mcg T at 120 h, 144 h post-MATRIX, 24 h post-T",23.8%
same,% of Sows Ovulating,"gilts; 200 mcg T at 120 h, 152 h post-MATRIX, 32 h post-T",33.3%
same,% of Sows Ovulating,"gilts; 200 mcg T at 120 h, 160 h post-MATRIX, 40 h post-T",52.4%
same,% of Sows Ovulating,"gilts; 200 mcg T at 120 h, 168 h post-MATRIX, 48 h post-T",95.2%
same,% of Sows Ovulating,"gilts; 200 mcg T at 120 h, 176 h post-MATRIX, 56 h post-T",95.2%
same,Interval from MATRIX Withdrawal to Ovulation,gilts; 200 mcg T at 120 h after MATRIX withdrawal,158.8
same,% of Sows Ovulating,"gilts; 400 mcg T at 120 h, 128 h post-MATRIX, 8 h post-T",4.5%
same,% of Sows Ovulating,"gilts; 400 mcg T at 120 h, 136 h post-MATRIX, 16 h post-T",9.1%
same,% of Sows Ovulating,"gilts; 400 mcg T at 120 h, 144 h post-MATRIX, 24 h post-T",22.7%
same,% of Sows Ovulating,"gilts; 400 mcg T at 120 h, 152 h post-MATRIX, 32 h post-T",36.4%
same,% of Sows Ovulating,"gilts; 400 mcg T at 120 h, 160 h post-MATRIX, 40 h post-T",63.6%
same,% of Sows Ovulating,"gilts; 400 mcg T at 120 h, 168 h post-MATRIX, 48 h post-T",100.0%
same,% of Sows Ovulating,"gilts; 400 mcg T at 120 h, 176 h post-MATRIX, 56 h post-T",100.0%
same,Interval from MATRIX Withdrawal to Ovulation,gilts; 400 mcg T at 120 h after MATRIX withdrawal,157.1
same,Duration of LH surge,LH; [3],19 ± 2
same,Magnitude of LH surge,LH; [3],3.94 ± 1.22
same,Onset of LH surge,LH; [3],4 ± 3
same,Time of maximum LH conc.,LH; [3],11 ± 7
same,"Gilts, which displayed a LH surge",LH; 100 mcg T in gel at 120 h post-MATRIX (n = 6 catheterized gilts),4
same,Duration of LH surge,LH; [4],18
same,Magnitude of LH surge,LH; [4],8.98
same,Onset of LH surge,LH; [4],0.5
same,Time of maximum LH conc.,LH; [4],4
same,"Gilts, which displayed a LH surge",LH; 200 mcg T in gel at 120 h post-MATRIX (n = 7 catheterized gilts),1
same,Duration of LH surge,LH; [5],17 ± 4
same,Magnitude of LH surge,LH; [5],11.65 ± 12.35
same,Onset of LH surge,LH; [5],4 ± 4
same,Time of maximum LH conc.,LH; [5],12 ± 4
same,"Gilts, which displayed a LH surge",LH; 400 mcg T in gel at 120 h post-MATRIX (n = 6 catheterized gilts),5
